In one data set the test system is FVB mice. Nature of the data set: Acute toxicity dose-escalation study in mice. As to conditions: n = 2. Format: in vivo, mouse. As for the experimental part: Six-week-old female FVB mice were administered BAP by intraperitoneal (IP) injection at doses of 1, 3, 10, 30, 100, and 300 mg/kg. The mice were observed every hour for 6 h post administration for signs of overt toxicity or mortality, or for symptoms related to pain/distress (ruffled fur, discharge from the eyes, dehydration, hunched posture, convulsions, lethargy, reluctance to move, uncoordinated movements, hypothermia, pale ears/feet, labored respiration, and/or cyanosis). Following initial observations, 6 h post administration, mice were then observed daily for signs of toxicity for 18 days. Mice that were administered the highest dose of BAP tested (300 mg/kg) were weighed at days 0, 1, 2, 5, 6, 7, 13, and 18.

A further data set has as its system DXPS. Details: method as in PMID 23326631. As to conditions: over other ThDP-dependent enzymes; cited from earlier work.

Entries after “also recorded” stand apart in the source; their conditions may differ.

With `CCCCOP(=O)(O)C(C)=O` [BAP, butyl acetylphosphonate], the body weight result with FVB mice (single IP dose 300 mg/kg, weighed for 18 days, 300 mg/kg) is listed as “weight was maintained throughout the observation period; also recorded: no symptoms of distress or change in weight”. Also, the “overt toxicity or altered behavior” value with FVB mice (single IP dose, escalating up to 300 mg/kg, observed 18 days) is “No overt toxicity or altered behavior was observed; also recorded: no symptoms of distress”. The “selectivity for DXPS” value in the data set on DXPS was “selective for DXPS over other ThDP-dependent enzymes”.

Values taken from publication PMC10986598, “Investigating inhibitors of 1-deoxy-D-xylulose 5-phosphate synthase in a mouse model of UTI” (Microbiology Spectrum, 2024).
